“Also recorded” adds a separate entry of the source. Ends that are not written are not given here.

The test system of the first data set is HUVEC monolayers. Briefly: Inhibition of macromolecule (HRP) permeability of thrombin-stimulated HUVEC monolayers. Type of data set: cell-based, human. Conditions: 10 μM Motapizone (PDE3) together with 1 μM RP73401 (PDE4), 1 U/ml thrombin. Here is the method: The procedure to measure macromolecule permeability of endothelial cell monolayers followed the method described by Langeler & van Hinsbergh (1988) with modifications. Human umbilical vein endothelial cells were isolated from umbilical cords according to standard procedures (Jaffe et al. 1973) and cultured in endothelial cell basal medium (EBM) supplemented with 2% FCS, 0.5 ng/ml VEGF, 10 ng/ml bFGF, 5 ng/ml EGF, 20 ng/ml Long R3 IGF-1, 0.2 μg/ml hydrocortisone, 1 μg/ml ascorbic acid, 22.5 μg/ml heparin, 50 μg/ml gentamicin, 50 ng/ml amphotericin B (EGM2 purchased from Promocell GmbH, Heidelberg, Germany). At confluency, cells were trypsinized and replated at 73000 cells per well on 3 μm polycarbonate filter Transwell inserts (Costar GmbH, Bodenheim, Germany) precoated with 10 μg cm^2 −1 Fibronectin (Sigma, Taufkirchen, Germany). HUVECs were cultured in EGM2 (100 μl in the upper wells and 600 μl in the lower wells) over four days prior the experiments and medium was changed every other day. At the day of the experiment culture medium was replaced by M199 with 1% human serum albumin. Endothelial cells were preincubated with cyclic nucleotide modifiers (the selective PDE3 inhibitor motapizone, the selective PDE4 inhibitor RP73401, the cGMP generators ANP or SNP and PDE2 inhibitors) for 15 min. HUVECs were then stimulated with Thrombin (1 U ml^−1) (Sigma, Taufkichen, Germany) and horsh radish peroxidase (5 μg/ml) (Sigma, Taufkirchen, Germany) as the macromolecule marker protein was added to the upper wells. Following 1 h incubation time Transwells were removed and the activity of horsh radish peroxidase that penetrated the endothelial cell monolayer was measured in the lower wells with the 3,3′, 5,5′-tetramethylbenzidine liquid substrate system from Sigma (Taufkirchen, Germany).
In parallel, compounds according to the invention can inhibit Thrombin-induced permeability of HUVEC monolayers for horsh radish peroxidase (HRP) as a macromolecule marker. […] The concentration-dependent inhibition of HRP permeability at different concentrations was assessed from the percent inhibition in the presence and absence of the PDE2 inhibitors and in the presence of 1 μM RP73401, 10 μM Motapizone and 100 nM ANP.
HUVEC cells on 3 μm polycarbonate filters (Transwells) were preincubated with 1 μM RP73401 (to block PDE4) and 10 μM Motapizone (to block PDE3), 1 mM SNP or 100 nM ANP and 1 μM of test sample over 15 min and then stimulated with 1 U/ml thrombin. HRP passage into the lower wells was assessed after 60 min.
`CC1CC(=O)NN=C1c1cc(-n2ccnc2)cs1` (centres unmarked) [Motapizone, reference compound]: the “Thrombin-induced increase of HRP permeability (hyperpermeability)” value was “completely abolished; also recorded: completely blocked”. As to `COc1ccc(C(=O)Nc2c(Cl)cncc2Cl)cc1OC1CCCC1` [RP73401, reference compound], the “Thrombin-induced increase of HRP permeability (hyperpermeability)” value is reported as “completely abolished; also recorded: completely blocked”.

The data set is the same for the next values; noted with them: ANP (100 nM) or SNP (1 mM) in additional presence of 10 μM Motapizone and 1 μM RP73401.
Regarding “ANP: cGMP generator used to augment cGMP and activate PDE2 (SLRRSSCFGGRMDRIGAQSGLGCNSFRY; ends and bridges not checked; cysteine pairing not given here; UniProt P01160 124-151, looked up) [reference compound]”, the “Effect on the inhibition of permeability by PDE3 and 4 inhibition” value is on record as “partially reversed”.

The data set is the same for the next values; noted with them: Homo sapiens, 1 h; HUVEC, 1 μM RP73401, 10 μM Motapizone, 1 mM SNP or 100 nM ANP, 1 U/ml thrombin, HRP passage after 60 min; read-out: Inhibition of SNP- or ANP-induced permeability, −log IC50 (converted).
Turning to `COCC(=O)Nc1ccc(Nc2nn3c(-c4ccc(OC)cc4)nnc3c3ccccc23)cc1` [Compound 4, 2-Methoxy-N-{4-[3-(4-methoxy-phenyl)-[1,2,4]triazolo[3,4-a]phthalazin-6-ylamino]-phenyl}-acetamide], the IC50 (commonly the concentration at which inhibition is half-maximal) is 2 to 63.1 nM. In the case of `COCCC(=O)Nc1ccc(Nc2nn3c(-c4ccc(OC)cc4)nnc3c3ccccc23)cc1` [Compound 5, 3-Methoxy-N-{4-[3-(4-methoxy-phenyl)-[1,2,4]triazolo[3,4-a]phthalazin-6-ylamino]-phenyl}-propionamide], the IC50 was 2 to 63.1 nM. With `COc1ccc(-c2nnc3c4ccccc4c(Nc4ccc(NC(=O)c5c[nH]cn5)cc4)nn23)cc1` [Compound 11, 1H-Imidazole-4-carboxylic acid {4-[3-(4-methoxy-phenyl)-[1,2,4]triazolo[3,4-a]phthalazin-6-ylamino]-phenyl}-amide], the half-inhibitory concentration (IC50) was 2 to 63.1 nM.

Take `COc1ccc(-c2nnc3c4ccccc4c(Nc4ccc(NC(=O)C5CCCCN5)cc4)nn23)cc1` (centres unmarked) [Compound 12, Piperidine-2-carboxylic acid {4-[3-(4-methoxy-phenyl)-[1,2,4]triazolo[3,4-a]phthalazin-6-ylamino]-phenyl}-amide]: the IC50 is 2 to 63.1 nM. As for `COc1ccc(-c2nnc3c4ccccc4c(Nc4ccc(NC(=O)C(F)(F)F)cc4)nn23)cc1` [Compound 17, 2,2,2-Trifluoro-N-{4-[3-(4-methoxy-phenyl)-[1,2,4]triazolo[3,4-a]phthalazin-6-ylamino]-phenyl}-acetamide], the IC50 is 2 to 63.1 nM.

Regarding `COc1ccc(-c2nnc3c4ccccc4c(Nc4ccc(NC(=O)C5CC5)cc4)nn23)cc1` [Compound 18, Cyclopropanecarboxylic acid {4-[3-(4-methoxy-phenyl)-[1,2,4]triazolo[3,4-a]phthalazin-6-ylamino]-phenyl}-amide], the IC50 is 2 to 63.1 nM. Take `COc1ccc(-c2nnc3c4ccccc4c(Nc4ccc(NC(=O)c5ccoc5)cc4)nn23)cc1` [Compound 21, Furan-3-carboxylic acid {4-[3-(4-methoxy-phenyl)-[1,2,4]triazolo[3,4-a]phthalazin-6-ylamino]-phenyl}-amide]: the IC50 is 2 to 63.1 nM. Consider `COc1ccc(-c2nnc3c4ccccc4c(Nc4ccc(NC(=O)CN5CCOCC5)cc4)nn23)cc1` [Compound 25, N-{4-[3-(4-Methoxy-phenyl)-[1,2,4]triazolo[3,4-a]phthalazin-6-ylamino]-phenyl}-2-morpholin-4-yl-acetamide], for which the IC50 is 2 to 63.1 nM. On the same count and under the same terms, then `O=C(Nc1ccc(Nc2nn3c(-c4ccccc4Br)nnc3c3ccccc23)cc1)C1CCCCN1` (centres unmarked) [Compound 30, Piperidine-2-carboxylic acid {4-[3-(2-bromo-phenyl)-[1,2,4]triazolo[3,4-a]phthalazin-6-ylamino]-phenyl}-amide], with 2 to 63.1 nM; and `COc1ccc(-c2nnc3c4ccccc4c(Nc4cccc(NC(=O)C5CC5)c4)nn23)cc1` [Compound 38, Cyclopropanecarboxylic acid {3-[3-(4-methoxy-phenyl)-[1,2,4]triazolo[3,4-a]phthalazin-6-ylamino]-phenyl}-amide], with 2 to 63.1 nM; and `COc1ccc(-c2nnc3c4ccccc4c(Nc4cccc(NC(=O)C5CCN(C(C)=O)CC5)c4)nn23)cc1` [Compound 54, 1-Acetyl-piperidine-4-carboxylic acid {3-[3-(4-methoxy-phenyl)-[1,2,4]triazolo[3,4-a]phthalazin-6-ylamino]-phenyl}-amide], with 2 to 63.1 nM. On the same count and under the same terms, then `CNC(=O)c1ccc(Nc2nn3c(-c4ccc(OC)cc4)nnc3c3ccccc23)cc1` [Compound 85, 4-[3-(4-Methoxy-phenyl)-[1,2,4]triazolo[3,4-a]phthalazin-6-ylamino]-N-methyl-benzamide], with 2 to 63.1 nM.

Tested on in the next data set: not given
Assay: not given
Conditions: not given
`COc1ccc(-c2nnc3c4ccccc4c(Nc4ccc(N)cc4)nn23)cc1` [Compound 1, N-[3-(4-Methoxyphenyl)-[1,2,4]triazolo[3,4-a]phthalazin-6-yl]-benzene-1,4-diamine]: the melting point (as a rule, the temperature, or range, at which the solid turns liquid) was 295 °C. On the same count and under the same terms, then `COc1ccc(-c2nnc3c4ccccc4c(Nc4ccc(NC(=O)c5ccccc5)cc4)nn23)cc1` [Compound 33, N-{4-[3-(4-Methoxyphenyl)-[1,2,4]triazolo[3,4-a]phthalazin-6-ylamino]-phenyl}-benzamide], with 323 °C; and `COc1ccc(-c2nnc3c4ccccc4c(Nc4cccc(NC(C)=O)c4)nn23)cc1` [Compound 66, N-{3-[3-(4-Methoxyphenyl)-[1,2,4]triazolo[3,4-a]phthalazin-6-ylamino]-phenyl}-acetamide], with 295 °C; and `COc1ccc(-c2nnc3c4ccccc4c(Nc4cccc(C(N)=O)c4)nn23)cc1` [Compound 109, 3-[3-(4-Methoxyphenyl)-[1,2,4]triazolo[3,4-a]phthalazin-6-ylamino]-benzamide], with 296 °C. As to `CNC(=O)c1cccc(Nc2nn3c(-c4ccc(OC)cc4)nnc3c3ccccc23)c1` [Compound 110, 3-[3-(4-Methoxyphenyl)-[1,2,4]triazolo[3,4-a]phthalazin-6-ylamino]-N-methylbenzamide], the melting point is 316 °C.

The record behind these values is patent publication US7851472B2, “Triazolophthalazines” (NYCOMED GmbH, priority 2004, dated 2010).
